Measured values reported in patent US6506567B2, “Water-soluble flourescent intercalator compound” (Fuji Photo Film Co., Ltd., priority 2000, dated 2003).

Tests used:
Type in all cases: binding
[1] = test system: calf thymus DNA (hybrid DNA); assay: Rate of dissociation of intercalator from hybrid DNA (SDS addition, fluorescence over time); conditions: SDS final concentration 0.5 vol. %; same buffer solution as the fluorescence test
Procedure: (§1) To the buffer solution containing hybrid DNA and intercalator which was employed above was added an aqueous sodium dodecylsulfate (SDS) solution to give a final SDS concentration of 0.5 vol. %. After the SDS solution was added, variation of the fluorescence strength at a lapse of time was measured. From the variation data, the dissociation rate was determined. The dissociation rate was 0.02/sec.

[2] = test system: calf thymus DNA (hybrid DNA); assay: Detection of hybrid DNA fragment using fluorescent intercalator (fluorometry); conditions: intercalator 1 M; calf thymus DNA 100 μM; 5 mM phosphate buffer pH 7.0, sodium sulfate 5 mM; excitation 434 nm
Procedure: (§2) The fluorescent intercalator (1 M) prepared above was placed in an aqueous 5 mM phosphate buffer solution (pH 7.0) containing a calf thymus DNA (hybrid DNA, 100 μM) and sodium sulfate (5 mM). In the buffer solution, the fluorescent intercalator was intercalated into the hybrid DNA. The fluorescence emitted by the buffer solution containing the hybrid DNA having the intercalated fluorescent intercalator was fluorometrically measured in the wavelength region of 440 to 600 nm by exciting with a light of 434 nm.
(§3) The fluorescence emitted by the same buffer solution containing no calf thymus DNA (i.e., hybrid DNA) was also measured in the same manner.

[3] = test system: single stranded DNA (calf thymus DNA heated to 90° C. for 20 min.); assay: Rate of dissociation of intercalator from single stranded DNA; conditions: determined in the same manner as in Example 1 (SDS 0.5 vol. %)
Procedure: as §1
(§4) The same calf thymus DNA (hybrid DNA) as employed in Example 1 was heated to 90° C. for 20 min., to give a single stranded DNA.
(§5) The procedures of Example 1 were repeated using thus prepared single stranded DNA in place of the hybrid DNA.

[4] = test system: single stranded DNA (calf thymus DNA heated to 90° C. for 20 min.); assay: Fluorometry with single stranded DNA in place of hybrid DNA; conditions: procedures of Example 1, excitation 434 nm
Procedure: as §2, §3, §4, §5

COc1ccc2nc3cc(Cl)ccc3c(N)c2c1 [9-amino-6-chloro-2-methoxyacridine, reference compound]
dissociation rate from hybrid DNA [1]: 19.0 s⁻¹ | fluorescence strength at 475 nm, buffer solution containing hybrid DNA relative to buffer solution containing no hybrid DNA [2]: approx. 6 times

N,N-bis{3-[4-(3-(6-chloro-9-imino-2-methoxyacridinyl)propyl)-1,4-diazacyclohexyl]propyl}naphthalenediimide
fluorescence strength at 475 nm, buffer solution containing hybrid DNA relative to buffer solution containing no hybrid DNA [2]: not high

N-{3-[4-(3-( 6-chloro-9-imino-2-methoxyacridinyl)propyl)-1,4-diazacyclohexyl]propyl}-N′-{3-[4-(3-aminopropyl)-1,4-diazacyclohexyl]propyl}naphthalenediimide
dissociation rate from hybrid DNA [1]: 0.02 s⁻¹ | dissociation rate from single stranded DNA [3]: 1.2 s⁻¹ | fluorescence strength at 475 nm, buffer solution containing hybrid DNA relative to buffer solution containing no hybrid DNA [2]: approx. 30 times | fluorescence strength at 475 nm, buffer solution containing single stranded DNA relative to buffer solution containing no single stranded DNA [4]: approx. 16 times
